In paper PMC7782983, “Anion inhibition studies of the Zn(II)-bound ι-carbonic anhydrase from the Gram-negative bacterium Burkholderia territorii” (Journal of Enzyme Inhibition and Medicinal Chemistry, 2021):

Target: BteCAι
Test: stopped-flow CO2 hydrase assay
Format: biochemical, Burkholderia territorii
Conditions: CO2 hydration, HEPES pH 7.5, 20 mM NaClO4, 15 min preincubation, room temperature; Zn(II) enzyme; read-out: KI (mM)^a / BteCAι^d

Compound | Ki [mM]
N#CO [CNO^−] | 0.79
O=C(O)O [CO3^2−] | 4.4
Cl [Cl^−] | 3.1
CCN(CC)C(=S)S [EtNCS2^−] | 0.81
O=C(O)O [HCO3^−] | 0.94
NS(N)(=O)=O [NH2SO2NH2] | 0.086
NS(=O)(=O)O [NH2SO3H] | 0.0062
OB(O)c1ccccc1 [PhB(OH)2] | 0.009
O=S(=O)(O)OOS(=O)(=O)O [S2O8^2−] | 7.4
N#CS [SCN^−] | 6.1
O=S(=O)(O)O [SO4^2−] | 5.8
N#C[SeH] [SeCN^−] | 6.6
[O]=[Sn]([OH])[OH] [SnO3^2−] | 0.094

Same assay, conditions: read-out: KI (mM)^a / BteCAι^d

Compound | Ki [mM]
O=[As](O)(O)c1ccccc1 [PhAsO3H2] | 0.008
